What was measured:
[1] = system: synovial fibroblasts from adjuvant arthritis; experiment: Proliferation of synovial fibroblasts by 3H-thymidine incorporation; assay type: cell-based, rats; conditions: 3H-thymidine present during last 24 hours of culture; relative to control culture
Method: (§1) At day 10, synovial samples were obtained from the established adjuvant arthritis rats. The collected synovial tissues were digested with 5 mg/ml collagenase (sigma) and 1.5 mg/ml DNase (sigma), and were passed through a wire mesh to prepare isolated cells. Cells (0.5×10^6) were placed in 10-cm dishes with 10 ml RPMI 1640 medium (Gibco) supplemented with 10% fetal calf serum, 2 mM L-glutamine, 50 U/ml penicillin and […] streptomycin. Cells were detached with trypsin-EDTA solution and passed for subculture when 90% confluency was reached. The synovial cells used were of passage 5. Proliferating synovial fibroblasts from adjuvant arthritis were treated with phenylbutyrate or trichostatin A, and proliferation was determined by incorporation of ^3H-thymidine, which was present during last 24 hours of culture. 4-phenylbutyrate (Merck) dissolved in sterile water with NaOH and adjusted to pH 7.2, or sodium phenylbutyrate (Triple Crown, U.S.A) dissolved in sterile water or trichostatin A (sigma) dissolved in ethanol were used. […] Hyperacetylated histones were detected by use of the antibody that specifically recognizes the hyperacetylated form of histone H3 (upstate biotechnology).

[2] = system: acetylated histone H3 in synovial fibroblasts from adjuvant arthritis; experiment: Accumulation of acetylated histones in synovial fibroblasts (western blot, immunofluorescence with anti-acetylated H3 antibody); assay type: cell-based, rats; conditions: phenylbutyrate 2 mM, trichostatin A 200 nM; 6 h for immunofluorescence
Method: as §1, with “biotechnology). […] The results were expressed as percentage value relative to the control culture (no drug addition). […]” for “biotechnology).”

[3] = system: TNF-α in the connective tissues of connective tissue disease; experiment: TNF-α immunohistochemistry of connective tissues in adjuvant arthritis; assay type: in vivo, Long Evans rats; conditions: treated vs vehicle group
histone deacetylases = conditions: background statement; cited from earlier work
[4] = system: p16 and p21 in synovial fibroblasts from adjuvant arthritis; experiment: Western blot of p16 and p21 in synovial fibroblasts; assay type: cell-based, rats; conditions: phenylbutyrate 2 mM, trichostatin A 200 nM; 12 h
[5] = system: p16 in the synovium of connective tissue disease; experiment: p16 immunohistochemistry of synovium in adjuvant arthritis; assay type: in vivo, Long Evans rats; conditions: treated vs vehicle group
Source text: FIGS. 8G-[…] are from lower magnification to higher magnification showing the severe synovial hyperplasia and panus formation in connective tissue disease deteriorating the cartilage and bone of joints (left panel: H&E stain). In contrast, there is no p16 staining in the invasive synovium of the vehicle group when compared to the synovium in the treated group (right panel: immunohistochemistry).

[6] = system: adjuvant arthritis, left hind paw (without CFA); experiment: Adjuvant arthritis (CFA), Delayed Phase, contralateral left hind paw volume; assay type: in vivo, Long Evans rats; conditions: for systematic inhibition effect in delayed phase (left paw), in words: summary of Table 2
Method: (§2) A well-ground suspension of killed Mycobacterium tuberculosis (DIFCO, USA; 0.3 mg in 0.1 ml of light mineral oil; Complete Freund's Adjuvant, CFA) was administered into the subplantar region of the right hind paw immediately after first dosing on first day (denoted day 1). Hind paw volume was measured by Plethsmometer (Cat. No. 7150, UGO BASILE, Italy) and Water cell (25 mm diameter, Cat. No. 7157, UGO BASILE, Italy) on day 0 (before CFA treated), 1, 5, 10, and 15 after CFA of right paw (with CFA), and day 0, 14, and 18 of left paw (without CFA); rats were weighed just before first dose and 1 hour after final dose. Right hind paw volume (Acute Phase) was measured 4 hours after CFA treated (denoted as day 1) and day 5, day 10 and day 15 after CFA. The contralateral left hind paw volume (Delayed Phase) was measured at day 14 and day 18. The inflammatory activity in this model was denoted by values calculated during the Acute Phase as well as the Delayed Phase.
(§3) The animal model for connective tissue disease was established according to the report by Winter C A, et al., Arthritis Rheum. 1966, 9:394-404. Groups of 5 Long Evans rats weighing 150±20 g were used. The 10% of phenylbutyrate cream and 1% of trichostatin A ointment at a dose of 200 mg/paw and 10 mg/paw, respectively, were applied topically twice daily for 18 consecutive days. A well-ground suspension of killed Mycobacterium tuberculosis (DIFCO, USA; 0.3 mg in 0.1 ml of light mineral oil; Complete Freund's Adjuvant, CFA) was administered into the subplantar region of the right hind paw immediately after first dosing on first day (denoted day 1). Hind paw volume was measured by Plethsmometer (Cat. No. 7150, UGO BASILE, Italy) and Water cell (25 mm diameter, Cat. No. 7157, UGO BASILE, Italy) on day 0 (before CFA treated), 1, 5, 10, and 15 after CFA of right paw (with CFA), and day 0, 14, and 18 of left paw (without CFA); rats were weighed just before first dose and 1 hour after final dose. Anti-inflammatory activity in this model was denoted by values calculated during the Acute Phase (the right hind paw volume) as well as the Delayed Phase (the contralateral left hind paw volume). For CFA-injected vehicle control rats, animals were also weighed on day 0 and day 18; CFA-injected vehicle control animals generally gain between 20 to 40 g body weight over this time period. A 30% or more reduction in paw volume relative to vehicle treated controls was considered significant.

[7] = system: inflammation of skin, joints and soft tissues in connective tissue disease; experiment: Gross views and histology of paw joints, skin and soft tissues in adjuvant arthritis; assay type: in vivo, Long Evans rats; conditions: topical 10% phenylbutyrate cream or 1% trichostatin A ointment vs vehicle
Method: as §3, with “A 30% or more reduction in paw volume relative to vehicle treated controls was considered significant.” left out

[8] = system: adjuvant arthritis, right hind paw (with CFA); experiment: Adjuvant arthritis (CFA), Acute Phase, right hind paw volume; assay type: in vivo, Long Evans rats
Method: as §2, §3

[9] = Acute Phase, right hind paw volume, topical twice daily x 18 days or PO x 5, parentheses mark 30% or more

CC(/C=C/C(=O)NO)=C\[C@@H](C)C(=O)c1ccc(N(C)C)cc1 [trichostatin A]
growth inhibition of synovial fibroblasts [1]: dose- and time- dependent growth inhibition | accumulation of acetylated histones [2]: induce an accumulation of acetylated histones | TNF-α staining in connective tissues [3]: no TNF-α staining in soft tissues | concentration range of histone deacetylase inhibition (histone deacetylases): submicromolar range | upregulation of p16 and p21, cell cycle inhibitors [4]: induce upregulation of p16 and p21 | p16 expression in synovium [5]: upregulates p16 expression | systematic inhibition effect in delayed phase (left paw), in words [6]: not significant

O=C(O)CCCc1ccccc1 [phenylbutyrate, 4-phenylbutyrate]
growth inhibition of synovial fibroblasts [1]: dose- and time- dependent growth inhibition | accumulation of acetylated histones [2]: induce an accumulation of acetylated histones | TNF-α staining in connective tissues [3]: only small amount of TNF-α was stained in the skin | concentration range of histone deacetylase inhibition (histone deacetylases): millimolar concentrations | upregulation of p16 and p21, cell cycle inhibitors [4]: induce upregulation of p16 and p21 | p16 expression in synovium [5]: upregulated | suppression of connective tissue disease (swelling, pannus, synovial hyperplasia, lymphocyte infiltration), in words [7]: pannus formation is blocked | systematic inhibition effect in delayed phase (left paw), in words [6]: not significant

C[C@]12CCC(=O)C=C1CC[C@@H]1[C@@H]2[C@@H](O)C[C@@]2(C)[C@H]1CC[C@]2(O)C(=O)CO [Hydrocortisone, hydrocortisone]
% Inhibition relative to vehicle treated, Day (5-0) [8, 9]: (35) % | % Inhibition relative to vehicle treated, Day (10-0) [8, 9]: (39) % | % Inhibition relative to vehicle treated, Day (15-0) [8, 9]: 23% | % Inhibition relative to vehicle treated, Day (1-0) ([8]; Acute Phase, unilateral ankle joint/right hind paw volume, topical twice daily x 18 days or PO x 5, parentheses mark 30% or more (significant)): (35) % | anti-inflammatory effect in Acute Phase, in words ([8]; right hind paw, summary of Table 2): marked inhibition effect of hydrocortisone is shown on day 1; however, the effect reduces after day 10 | % Inhibition relative to vehicle treated, Day (14-0) ([6]; Delayed Phase, contralateral ankle joint/left hind paw volume, parentheses mark 30% or more): (30) % | % Inhibition relative to vehicle treated, Day (18-14) ([6]; Delayed Phase, contralateral left hind paw volume): 20% | % Inhibition relative to vehicle treated, Day (18-0) ([6]; Delayed Phase, contralateral left hind paw volume, parentheses mark 30% or more): 27% | systematic inhibition effect in delayed phase (left paw), in words [6]: partially shown
